This passage reports IC50 results from US10722514B2 (FLX Bio, Inc., priority 2017, dated 2020).

Structures can show the parent of a compound that is named as a salt.

The assay deals with T1, recombinant full-length USP7 (Homo sapiens, UniProt Q93009).
T1 construct: A 25 μl reaction volume containing recombinant full-length USP7 (62 pM)
Kind of assay: USP7-mediated ubiquitin-rhodamine cleavage assay. The format is biochemical. To be noted: recombinant full-length USP7 62 pM; ubiquitin-rhodamine 100 nM; 30-minute pre-incubation, 1 hour reaction at room temperature; read-out: Potency (USP7 IC50). Put shortly:
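IC50 values came from fluorescence measured after a 1 h room-temperature reaction of 62 pM enzyme with 100 nM ubiquitin-rhodamine, following 30 min compound preincubation; fits used four parameters.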

T1 sequence (Q93009 whole entry): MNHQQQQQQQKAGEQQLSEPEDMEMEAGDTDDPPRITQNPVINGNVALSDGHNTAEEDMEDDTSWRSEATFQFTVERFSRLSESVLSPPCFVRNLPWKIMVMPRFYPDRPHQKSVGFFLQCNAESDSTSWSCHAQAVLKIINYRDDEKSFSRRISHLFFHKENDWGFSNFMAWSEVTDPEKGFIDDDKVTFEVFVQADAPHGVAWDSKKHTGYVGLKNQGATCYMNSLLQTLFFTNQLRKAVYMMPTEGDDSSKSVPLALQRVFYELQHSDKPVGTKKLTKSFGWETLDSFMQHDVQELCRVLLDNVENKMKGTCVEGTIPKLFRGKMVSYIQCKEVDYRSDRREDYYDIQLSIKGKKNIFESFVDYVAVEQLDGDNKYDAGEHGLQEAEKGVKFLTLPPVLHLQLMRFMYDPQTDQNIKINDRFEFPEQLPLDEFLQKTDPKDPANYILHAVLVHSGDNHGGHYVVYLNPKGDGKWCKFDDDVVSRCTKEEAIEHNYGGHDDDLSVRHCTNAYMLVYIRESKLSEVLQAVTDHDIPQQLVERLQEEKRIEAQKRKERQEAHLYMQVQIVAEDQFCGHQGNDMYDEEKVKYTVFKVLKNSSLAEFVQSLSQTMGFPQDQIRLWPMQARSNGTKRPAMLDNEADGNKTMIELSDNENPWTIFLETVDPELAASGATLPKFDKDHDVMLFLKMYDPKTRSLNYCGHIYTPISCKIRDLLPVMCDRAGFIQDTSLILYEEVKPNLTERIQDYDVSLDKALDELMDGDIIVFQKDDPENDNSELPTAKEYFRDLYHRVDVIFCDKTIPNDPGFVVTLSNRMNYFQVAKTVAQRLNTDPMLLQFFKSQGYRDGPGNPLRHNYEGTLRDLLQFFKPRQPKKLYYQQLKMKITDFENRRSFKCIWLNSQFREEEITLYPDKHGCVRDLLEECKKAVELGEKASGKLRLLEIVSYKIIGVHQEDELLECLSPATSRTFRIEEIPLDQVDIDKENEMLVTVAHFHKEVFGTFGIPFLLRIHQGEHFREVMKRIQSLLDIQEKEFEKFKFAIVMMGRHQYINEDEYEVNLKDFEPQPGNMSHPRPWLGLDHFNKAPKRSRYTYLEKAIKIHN

Usually IC50 stands for the point on the concentration scale where inhibition reaches its midpoint. As for `Cc1cc(Cl)cc(-c2ccnc3c(F)c(CO)sc23)c1O[C@@H]1CNC[C@@H]1F` [Example 407, [7-[5-chloro-2-[(3R,4S)-4-fluoropyrrolidin-3-yl]oxy-3-methyl-phenyl]-3-fluoro-thieno[3,2-b]pyridin-2-yl]methanol], the 50% inhibitory concentration (IC50) is less than 1000 nM.

Take `Cc1cc(Cl)cc(-c2ccnc(CCCN3C(=O)CCC3=O)c2)c1OC1CNC[C@@H]1F` (stereo partly drawn) [Example 408, 1-[3-[4-[5-chloro-2-[(4S)-4-fluoropyrrolidin-3-yl]oxy-3-methyl-phenyl]-2-pyridyl]propyl]pyrrolidine-2,5-dione; 2,2,2-trifluoroacetic acid]: the IC50 was 1000 to 10000 nM.

For the compound `Cc1cc(Cl)cc(-c2ccncc2CCCN2C(=O)CCC2=O)c1OC1CNC[C@@H]1F` (stereo partly drawn) [Example 409, 1-[3-[4-[5-chloro-2-[(4S)-4-fluoropyrrolidin-3-yl]oxy-3-methyl-phenyl]-3-pyridyl]propyl]pyrrolidine-2,5-dione; 2,2,2-trifluoroacetic acid], the IC50 lay in the range of 1000 to 10000 nM.

Regarding `Cc1cc(Cl)cc(-c2ccnc(CCCN3C(=O)CCC3=O)c2)c1OC1CCNCC1` [Example 410, 1-[3-[4-[5-chloro-3-methyl-2-(4-piperidyloxy)phenyl]-2-pyridyl]propyl]pyrrolidine-2,5-dione; 2,2,2-trifluoroacetic acid], the IC50 was in the range of 1000 to 10000 nM.

With `Cc1cc(Cl)cc(-c2ccncc2CCCN2C(=O)CCC2=O)c1OC1CCNCC1` [Example 411, 1-[3-[4-[5-chloro-3-methyl-2-(4-piperidyloxy)phenyl]-3-pyridyl]propyl]pyrrolidine-2,5-dione; 2,2,2-trifluoroacetic acid], the IC50 was 1000 to 10000 nM.

Consider `Cc1cc(Cl)cc(-c2ncnc3cc(CN4C(=O)C5CC5C4=O)sc23)c1OC1CCCNC1` (stereo not shown) [Example 412, 3-[[4-[5-chloro-3-methyl-2-(3-piperidyloxy)phenyl]thieno[3,2-d]pyrimidin-6-yl]methyl]-3-azabicyclo[3.1.0]hexane-2,4-dione], for which the IC50 was less than 1000 nM.

As to `Cc1cc(Cl)cc(-c2ccnc3cc(CN4C(=O)CCC4=O)sc23)c1OC1CC(N)C1` (stereo not shown) [Example 413, 1-[[7-[2-(3-aminocyclobutoxy)-5-chloro-3-methyl-phenyl]thieno[3,2-b]pyridin-2-yl]methyl]pyrrolidine-2,5-dione dihydrochloride], the IC50 was less than 1000 nM.

For the compound `Cc1cc(Cl)cc(-c2ccnc3cc(CN4C(=O)C[C@@H](F)C4=O)sc23)c1OC1CCNCC1` [Example 414, (3R)-1-[[7-[5-chloro-3-methyl-2-(4-piperidyloxy)phenyl]thieno[3,2-b]pyridin-2-yl]methyl]-3-fluoro-pyrrolidine-2,5-dione], the IC50 was less than 1000 nM.

Take `Cc1cc(Cl)cc(-c2ccnc3cc(CN4C(=O)CCC4=O)sc23)c1O[C@@H]1CNCC[C@H]1C` [Example 415, 1-[[7-[5-chloro-3-methyl-2-[[(3S,4R)-4-methyl-3-piperidyl]oxy]phenyl]thieno[3,2-b]pyridin-2-yl]methyl]pyrrolidine-2,5-dione]: the IC50 is less than 1000 nM.

As for `Cc1cc(Cl)cc(-c2ccnc3cc(CN4C(=O)CCC4=O)sc23)c1O[C@H]1CC[C@@H](C)NC1` [Example 416, 1-[[7-[5-chloro-3-methyl-2-[[(3S,6R)-6-methyl-3-piperidyl]oxy]phenyl]thieno[3,2-b]pyridin-2-yl]methyl]pyrrolidine-2,5-dione], the IC50 was less than 1000 nM.

As to `Cc1cc(Cl)cc(-c2ccnc3cc(CN4C(=O)C[C@H](O)C4=O)sc23)c1OC1CCNCC1` [Example 417, (3S)-1-[[7-[5-chloro-3-methyl-2-(4-piperidyloxy)phenyl]thieno[3,2-b]pyridin-2-yl]methyl]-3-hydroxy-pyrrolidine-2,5-dione dihydrochloride], the IC50 was less than 1000 nM.

`Cc1cc(Cl)cc(-c2ccnc3cc(Cn4c(=O)ccn(C)c4=O)sc23)c1OC1CC2CNC1C2` (stereo not shown) [Example 418]: the half-inhibitory concentration (IC50) is less than 1000 nM.

Turning to `Cc1cc(Cl)cc(-c2ccnc3cc(CN4C(=O)CCC4=O)sc23)c1OC1CCCNC1C` (stereo not shown) [Example 419, 1-[[7-[5-chloro-3-methyl-2-[(2-methyl-3-piperidyl)oxy]phenyl]thieno[3,2-b]pyridin-2-yl]methyl]pyrrolidine-2,5-dione], the IC50 is less than 1000 nM.

Regarding `Cc1cc(Cl)cc(-c2ccnc3cc(Cn4c(=O)[nH]cc(F)c4=O)sc23)c1O[C@H]1CCCNC1` [Example 420, 3-[[7-[5-chloro-3-methyl-2-[[(3S)-3-piperidyl]oxy]phenyl]thieno[3,2-b]pyridin-2-yl]methyl]-5-fluoro-1H-pyrimidine-2,4-dione], the IC50 is less than 1000 nM.

Turning to `CO[C@H]1CC(=O)N(Cc2cc3nccc(-c4cc(Cl)cc(C)c4O[C@H]4CCCNC4)c3s2)C1=O` [Example 421, (3S)-1-[[7-[5-chloro-3-methyl-2-[[(3S)-3-piperidyl]oxy]phenyl]thieno[3,2-b]pyridin-2-yl]methyl]-3-methoxy-pyrrolidine-2,5-dione; 2,2,2-trifluoroacetic acid], the IC50 is less than 1000 nM.

With `Cc1cc(Cl)cc(-c2ccnc3cc(Cn4c(=O)c(F)cn(C)c4=O)sc23)c1O[C@H]1CCCNC1` [Example 422, 3-[[7-[5-chloro-3-methyl-2-[[(3S)-3-piperidyl]oxy]phenyl]thieno[3,2-b]pyridin-2-yl]methyl]-5-fluoro-1-methyl-pyrimidine-2,4-dione], the IC50 is less than 1000 nM.

Take `CCn1ccc(=O)n(Cc2cc3nccc(-c4cc(Cl)cc(C)c4O[C@H]4CCCNC4)c3s2)c1=O` [Example 423, 3-[[7-[5-chloro-3-methyl-2-[[(3S)-3-piperidyl]oxy]phenyl]thieno[3,2-b]pyridin-2-yl]methyl]-1-ethyl-pyrimidine-2,4-dione]: the IC50 was less than 1000 nM.

`Cc1cc(Cl)cc(-c2ccnc3cc(CN4C(=O)CCC4=O)sc23)c1O[C@@H]1CNC[C@H](F)C1` [Example 424, 1-[[7-[5-chloro-2-[[(3S,5R)-5-fluoro-3-piperidyl]oxy]-3-methyl-phenyl]thieno[3,2-b]pyridin-2-yl]methyl]pyrrolidine-2,5-dione]: the IC50 is less than 1000 nM.

With `Cc1cc(Cl)cc(-c2ccnc3cc(CN4C(=O)CCC4=O)sc23)c1O[C@H]1CNCC[C@@H]1F` [Example 425, 1-[[7-[5-chloro-2-[[(3S,4S)-4-fluoro-3-piperidyl]oxy]-3-methyl-phenyl]thieno[3,2-b]pyridin-2-yl]methyl]pyrrolidine-2,5-dione], the IC50 is less than 1000 nM.

Turning to `Cc1cc(Cl)cc(-c2ccnc3cc(Cn4c(=O)ccn(C)c4=O)sc23)c1O[C@@H]1CC[C@@H](N)C1` [Example 426, 3-[[7-[2-[(1R,3R)-3-aminocyclopentoxy]-5-chloro-3-methyl-phenyl]thieno[3,2-b]pyridin-2-yl]methyl]-1-methyl-pyrimidine-2,4-dione; 2,2,2-trifluoroacetic acid], the IC50 is less than 1000 nM.

For the compound `Cc1cc(Cl)cc(-c2ccnc3cc(CN4C(=O)CCC4=O)sc23)c1OC1CCCC(N)C1` (stereo not shown) [Example 427, 1-[[7-[2-(3-aminocyclohexoxy)-5-chloro-3-methyl-phenyl]thieno[3,2-b]pyridin-2-yl]methyl]pyrrolidine-2,5-dione; 2,2,2-trifluoroacetic acid], the IC50 was less than 1000 nM.

For `O=C1CCC(=O)N1Cc1cc2nccc(-c3cc(Cl)cc(C(F)F)c3O[C@@H]3CNC[C@@H]3F)c2s1` [Example 428, 1-[[7-[5-chloro-3-(difluoromethyl)-2-[(3R,4S)-4-fluoropyrrolidin-3-yl]oxy-phenyl]thieno[3,2-b]pyridin-2-yl]methyl]pyrrolidine-2,5-dione], the IC50 is less than 1000 nM.

Consider `Cc1cc(Cl)cc(-c2ccnc3cc(CN4C(=O)CCC4=O)sc23)c1OC1CNCc2ccccc21` (stereo not shown) [Example 429, 1-[[7-[5-chloro-3-methyl-2-(1,2,3,4-tetrahydroisoquinolin-4-yloxy)phenyl]thieno[3,2-b]pyridin-2-yl]methyl]pyrrolidine-2,5-dione], for which the IC50 was less than 1000 nM.

In the case of `Cc1cc(Cl)cc(-c2ccnc3cc(CN4C(=O)CCC4=O)sc23)c1O[C@@H]1CN[C@@H]2COC[C@@H]21` [Example 430, 1-[[7-[2-[[(3S,3aR,6aS)-2,3,3a,4,6,6a-hexahydro-1H-furo[3,4-b]pyrrol-3-yl]oxy]-5-chloro-3-methyl-phenyl]thieno[3,2-b]pyridin-2-yl]methyl]pyrrolidine-2,5-dione], the IC50 is less than 1000 nM.

`O=C1CCC(=O)N1Cc1cc2nccc(-c3cc(Cl)cc(C(F)F)c3OC3CCNCC3)c2s1` [Example 431, 1-[[7-[5-chloro-3-(difluoromethyl)-2-(4-piperidyloxy)phenyl]thieno[3,2-b]pyridin-2-yl]methyl]pyrrolidine-2,5-dione dihydrochloride]: the IC50 is less than 1000 nM.

`O=C1CCC(=O)N1Cc1cc2nccc(-c3cc(Cl)cc(C(F)F)c3O[C@H]3CCCNC3)c2s1` [Example 432, 1-[[7-[5-chloro-3-(difluoromethyl)-2-[[(3S)-3-piperidyl]oxy]phenyl]thieno[3,2-b]pyridin-2-yl]methyl]pyrrolidine-2,5-dione dihydrochloride]: the IC50 is less than 1000 nM.

As to `Cc1c(F)c(Cl)cc(-c2ccnc3cc(CN4C(=O)CCC4=O)sc23)c1O[C@H]1CCCNC1` [Example 433, 1-[[7-[5-chloro-4-fluoro-3-methyl-2-[[(3S)-3-piperidyl]oxy]phenyl]thieno[3,2-b]pyridin-2-yl]methyl]pyrrolidine-2,5-dione; 2,2,2-trifluoroacetic acid], the IC50 lay within 1000 to 10000 nM.

`Cc1cc(C(F)(F)F)cc(-c2ccnc3cc(Cn4c(=O)[nH]cc(C)c4=O)sc23)c1O[C@@H]1CNC[C@@H]1F` [Example 434, 3-[[7-[2-[(3R,4S)-4-fluoropyrrolidin-3-yl]oxy-3-methyl-5-(trifluoromethyl)phenyl]thieno[3,2-b]pyridin-2-yl]methyl]-5-methyl-1H-pyrimidine-2,4-dione]: the IC50 is less than 1000 nM.
